Values joined by “and” are separate entries in the source; they are usually repeats but may differ in a detail not shown here. Equal values may be shown once.
Assay: Intraduodenal bioavailability of zanamivir from glycerol and PBS formulations, enhancer pre-dose (Example 6)
Conditions: for half-life: t1/2, ID 1.5 mg/animal
Description: Male Sprague-Dawley rats (Hilltop Labs), 3 animals per treatment group, 250-350 grams in weight, were fitted with a jugular vein cannula (JVC). Animals intended for intraduodenal dosing were also fitted with one or more intraduodenal cannula (IDC) and those intended for intravenous dosing were fitted with a second JVC. Food was withheld from the animals for a minimum of twelve hours prior to test article administration and was returned approximately four hours post-dose. Water was supplied ad libitum.
Intraduodenal doses composed of 1.5 mg of zanamivir and varying amounts of an enhancer (glycerol or Capmul MCM L8) were injected directly into the duodenum via the IDC. Intravenous dosing was conducted by the injection of 1.5 mg of zanamivir in 200 μL of PBS through a JVC. For some experiments, the absorption enhancer was administered intraduodenally 2 hr prior to administering 1.5 mg of zanamivir in PBS through a second IDC. Each intraduodenal dose was followed with the introduction of a small air bubble (˜10 μL) in the cannula followed by a flush of 125 μL of PBS to ensure the dose was given in full. The volume of PBS used for cannula flush was consistent across the treatment groups. The cannula was tied to prevent the PBS remaining in the cannula from entering the duodenum.
Blood samples collected via the JVC, approximately 400 μL each, were obtained at 2 min, 5 min, 15 min, 30 min, 60 min, 90 min, and 120 min, with sodium heparin used as an anti-coagulant. Each sample was placed into a chilled tube containing the anticoagulant and kept on ice until centrifugation at 4° C., 3,000×g, for 5 min. The plasma supernatants were stored at −70° C. until LC-MS analysis.
Dosing solution samples were assayed by LC-MS/MS using electrospray ionization. The chromatographic system consisted of Perkin Elmer series 200 micropumps and autosampler equipped with a Waters Atlantic® HILIC Silica 3 μM, 2.1×50 mm column. The mass spectrometer was a PE Sciex API 4000 with electrospray interface in multiple reaction monitoring mode. […] Stock solutions (1 mg/mL zanamivir) were prepared in water. Standards (eight concentrations) were prepared in the appropriate matched matrix (HBSSg or Sprague-Dawley rat plasma containing sodium heparin) and diluted 50-fold with methanol. Experimental samples were treated identically.
Standards and samples were prepared in Sprague Dawley rat plasma containing sodium heparin as an anticoagulant. An eight-point calibration curve was prepared at concentrations of 1000, 750, 500, 250, 100, 50, 25, and 10 ng/mL by serial dilution. Standard samples were treated identically to the study samples.
Plasma samples were extracted by protein precipitation in methanol.
In this example, the bioavailability of Zanamivir was evaluated after intraduodenal doses in male Sprague-Dawley rats. The test compound was dosed at 1.5 mg/animal through intraduodenal routes from glycerol and PBS formulations. Plasma levels were determined by LC-MS/MS analysis. Pharmacokinetic parameters were estimated by a non-compartmental model using WinNonlin v5.2.1 software.

Structure (SMILES): CC(=O)NC1C(NC(=N)N)C=C(C(=O)O)OC1C(O)C(O)CO (stereo not shown) [Zanamivir, 5-acetamido-4-guanidino-6-(1,2,3-trihydroxypropyl)-5,6-dihydro-4H-pyran-2-carboxylic acid]
- Plasma concentration (ID 1.5 mg/animal, 50 µL PBS, 50 µL blank Capmul MCM L8 -2 hr, 0.25 hr, individual rats): 27.1 ng/mL and 28.1 ng/mL
- Plasma concentration (ID 1.5 mg/animal, 50 µL PBS, 50 µL blank Capmul MCM L8 -2 hr, 0.5 hr, individual rats): 34.5 ng/mL and 42.9 ng/mL
- Plasma concentration (ID 1.5 mg/animal, 50 µL PBS, 50 µL blank Capmul MCM L8 -2 hr, 0.83 hr, individual rats): 18.1 ng/mL and 8.00 ng/mL and 6.27 ng/mL
- Plasma concentration (ID 1.5 mg/animal, 50 µL PBS, 50 µL blank Capmul MCM L8 -2 hr, 1.0 hr, individual rats): 33.1 ng/mL and 32.1 ng/mL
- Plasma concentration (ID 1.5 mg/animal, 50 µL PBS, 50 µL blank Capmul MCM L8 -2 hr, 1.5 hr, individual rats): 61.5 ng/mL and 23.2 ng/mL and 31.4 ng/mL
- Plasma concentration (ID 1.5 mg/animal, 50 µL PBS, 50 µL blank Capmul MCM L8 -2 hr, 2.0 hr, individual rats): 68.3 ng/mL and 14.8 ng/mL and 18.2 ng/mL
- Tmax (ID 1.5 mg/animal, 50 µL PBS, 50 µL blank Capmul MCM L8 -2 hr, individual rats): 2.00 h
- Plasma concentration (ID 1.5 mg/animal, 50 µL PBS, 150 µL blank glycerol -2 hr, 0.25 hr, individual rats): 65.2 ng/mL and 28.9 ng/mL and 61.2 ng/mL
- Plasma concentration (ID 1.5 mg/animal, 50 µL PBS, 150 µL blank glycerol -2 hr, 0.5 hr, individual rats): 40.1 ng/mL and 72.3 ng/mL
- Plasma concentration (ID 1.5 mg/animal, 50 µL PBS, 150 µL blank glycerol -2 hr, 0.83 hr, individual rats): 22.7 ng/mL and 1.47 ng/mL and 48.9 ng/mL
- Plasma concentration (ID 1.5 mg/animal, 50 µL PBS, 150 µL blank glycerol -2 hr, 1.0 hr, individual rats): 39.8 ng/mL and 38.4 ng/mL
- Plasma concentration (ID 1.5 mg/animal, 50 µL PBS, 150 µL blank glycerol -2 hr, 1.5 hr, individual rats): 45.8 ng/mL and 34.5 ng/mL
- Plasma concentration (ID 1.5 mg/animal, 50 µL PBS, 150 µL blank glycerol -2 hr, 2.0 hr, individual rats, BLOQ = below 10 ng/mL): 54.8 ng/mL
- Tmax (ID 1.5 mg/animal, 50 µL PBS, 150 µL blank glycerol -2 hr, individual rats): 1.50 h
- Plasma concentration (ID 1.5 mg/animal, 100 µL Glycerol, 0.25 hr, individual rats): 76.4 ng/mL and 40.7 ng/mL
- Plasma concentration (ID 1.5 mg/animal, 100 µL Glycerol, 0.5 hr, individual rats): 59.2 ng/mL and 35.6 ng/mL
- Plasma concentration (ID 1.5 mg/animal, 100 µL Glycerol, 0.83 hr, individual rats): 55.4 ng/mL and 78.4 ng/mL and 37.5 ng/mL
- Plasma concentration (ID 1.5 mg/animal, 100 µL Glycerol, 1.0 hr, individual rats): 55.3 ng/mL and 39.4 ng/mL
- Plasma concentration (ID 1.5 mg/animal, 100 µL Glycerol, 1.5 hr, individual rats): 29.6 ng/mL and 47.6 ng/mL and 63.5 ng/mL
- Plasma concentration (ID 1.5 mg/animal, 100 µL Glycerol, 2.0 hr, individual rats): 30.8 ng/mL and 37.4 ng/mL and 94.5 ng/mL
- Tmax (ID 1.5 mg/animal, 100 µL Glycerol, individual rats): 2.00 h
- t1/2 (ID 1.5 mg/animal, 100 µL Glycerol, mean (n = 1)): 1.77 h
- Plasma concentration (ID 1.5 mg/animal, 150 µL Glycerol, 0.25 hr, individual rats): 57.9 ng/mL and 96.3 ng/mL
- Plasma concentration (ID 1.5 mg/animal, 150 µL Glycerol, 0.5 hr, individual rats): 919 ng/mL and 57.8 ng/mL and 55.9 ng/mL
- Plasma concentration (ID 1.5 mg/animal, 150 µL Glycerol, 0.83 hr, individual rats): 72.7 ng/mL and 108 ng/mL
- Plasma concentration (ID 1.5 mg/animal, 150 µL Glycerol, 1.0 hr, individual rats): 60.6 ng/mL and 36.6 ng/mL
- Plasma concentration (ID 1.5 mg/animal, 150 µL Glycerol, 1.5 hr, individual rats): 46.8 ng/mL and 46.9 ng/mL and 16.0 ng/mL
- Plasma concentration (ID 1.5 mg/animal, 150 µL Glycerol, 2.0 hr, individual rats): 37.7 ng/mL and 33.4 ng/mL and 16.7 ng/mL
- tmax (second line so headed, Table 10) (ID 1.5 mg/animal, 150 µL Glycerol, individual rats): 1.16 h
- half-life (male, Sprague-Dawley, rat, in vivo, 1.5 mg, 50 µL PBS, 50 µL blank Capmul MCM L8 -2 hr, individual rats): 0.86 h
- half-life (male, Sprague-Dawley, rat, in vivo, 1.5 mg, 50 µL PBS, 50 µL blank Capmul MCM L8 -2 hr, mean (n = 1)): 0.86 h
- half-life (male, Sprague-Dawley, rat, in vivo, 1.5 mg, 100 µL Glycerol, individual rats): 1.77 h
- half-life (male, Sprague-Dawley, rat, in vivo, 1.5 mg, 100 µL Glycerol, mean (n = 1)): 1.77 h
- half-life (male, Sprague-Dawley, rat, in vivo, 1.5 mg, 150 µL Glycerol, mean (n = 2)): 1.63 h
- Tmax (male, Sprague-Dawley, rat, in vivo, 1.5 mg, tmax (second line so headed, Table 10), ID 1.5 mg/animal, 150 µL Glycerol, individual rats): 2.09 h
- Tmax (male, Sprague-Dawley, rat, in vivo, 1.5 mg, tmax (second line so headed, Table 10), ID 1.5 mg/animal, 150 µL Glycerol, mean): 1.63 h
- Tmax (male, Sprague-Dawley, rat, in vivo, 1.5 mg, tmax, ID 1.5 mg/animal, 50 µL PBS, 50 µL blank Capmul MCM L8 -2 hr, mean): 1 h
- Tmax (male, Sprague-Dawley, rat, in vivo, 1.5 mg, tmax, ID 1.5 mg/animal, 50 µL PBS, 150 µL blank glycerol -2 hr, mean): 0.75 h
- Tmax (male, Sprague-Dawley, rat, in vivo, 1.5 mg, tmax, ID 1.5 mg/animal, 100 µL Glycerol, mean): 0.72 h
- concentration at 0.25 hr (male, Sprague-Dawley, rat, in vivo, 1.5 mg/animal, Plasma concentration, ID 1.5 mg/animal, 50 µL PBS, 50 µL blank Capmul MCM L8 -2 hr, 0.25 hr, individual rats): 33.3 ng/mL
